From paper PMC4942610, “Exploration of acetanilide derivatives of 1-(ω-phenoxyalkyl)uracils as novel inhibitors of Hepatitis C Virus replication” (Scientific Reports, 2016)
Where “and” joins values, the source holds several entries; their conditions need not be identical. Equal entries are not always repeated. Where two headings read alike, the source gives them in different places.

Tests used:
Huh7-J20 cells [1] = details: cited from earlier work
HCVcc gt 2a strain JFH-1 [2] = tested on: HCVcc gt 2a strain JFH-1; design: method as in Iro et al.[23]; details: Huh7-J20 reporter cells; ref Iro et al.[23]; cited from earlier work
HCVcc gt 2a strain JFH-1 [3] = assay: HCVcc JFH-1 infection of Huh7-J20 reporter cells, second protocol (full life cycle), SEAP dose-response; format: cell-based, Hepatitis C Virus; details: JFH-1 HCVcc gt2a, 3 d post-infection
[4] = Cell viability assay (WST-1); details: human, Huh7-J20 cells
Description: (§3) All the drugs were tested starting from the concentration of 30 μM with 3-fold dilutions.
(§4) Huh7, Huh7-J20 and Huh7-J17 cells were tested for viability in the same conditions described for antiviral assays. Cells grown in a 96-well tissue culture plate in the presence of the drugs or DMSO control were incubated with the WST-1 reagent (Roche) for 3 h as per the manufacturer’s protocol. Cell viability was obtained reading absorbance at 450 nm with PHERAstar (BMG Labtech).

Huh7-J20 cells [5] = tested on: Huh7-J20 cells
Description: as §3, §4

[6] = tested on: gt3a S52-WT-∆N sub-genomic replicon; assay: gt3a sub-genomic replicon dose-response; format: cell-based, Hepatitis C Virus; details: Huh7.5-SEC14L2 cells electroporated with S52-WT-∆N RNA, 72 h, luciferase
HCVcc JFH-1DSGCSL = assay: Viral RNA quantification after infection with adaptive mutant JFH-1DSGCSL (Protocol 3), RT-qPCR; format: cell-based, Hepatitis C Virus; details: 10 μM, Huh7 cells, Protocol 3, 72 h post-infection
Description: To further confirm antiviral activity, we tested Z385, Z387, Z400, and Z401 on a cell culture adaptive derivative HCV JFH-1DSGCSL strain that consistently replicates to high titres. Huh7 cells were infected with HCVcc JFH-1DSGCSL in the presence of drugs as per Protocol 3 described above and RNA was collected 72 h post-infection. Total RNA and the viral RNA were quantified as above.
Figure 5 Antiviral activity on cell-culture adaptive mutant JFH-1DSGCSL. Huh7 cells were infected following the third protocol with adaptive mutant virus and incubated for 3 d with drugs at the concentration of 10 μM. Viral RNA levels and relative SEAP activity were measured as previously described.
Huh7 Lunet-CD81 cells and their control Huh7L- H/EF cells were electroporated with 5 μg of JFH-1 RNA, seeded with drugs in a 12-well tissue culture dish and incubated for 3 d. Cellular RNA was isolated using TRI Reagent (Sigma) following manufacturer’s protocol. RNA quantification from the released viral particles was performed as below following digestion of infected cell medium with RNAse A for 2 h and RNA extraction using the RNeasy kit (Qiagen). HCV RNA quantification was carried out by RT-qPCR using TaqMan probes as reported. Briefly, 250 ng of total RNA were reverse transcribed to obtain cDNA in a 20 μl reaction using TaqMan Reverse Transcription Reagents (Life Technologies) with random hexamers, following manufacturer’s protocol. Reverse transcription was performed at 48 °C for 30 min, followed by 5 min at 85 °C. The qPCR was performed with 1.5 μl of cDNA in a 15 μl reaction mixture (TaqMan Fast Universal PCR Master Mix; Life Technologies) with 250 nM of Fw_primer (5′- […]-3′), 250 nm of Rev_primer (5′-[…]-3′) and 250 nM of TaqMan MGB (minor-groove binding) probe labelled with 6-carboxyfluorescin (5′-FAM-[…]-MGB-3′). Samples were placed in an ABI Fast 7500 instrument (Life Technologies) and were amplified using the following parameters: 95 °C for 5 minutes with cycling parameters set to 95 °C for 3 s and 60 °C for 30 s for 40 cycles. Absolute quantification was carried out using linear regression on a standard curve based on pJFH-1 serial dilution.

[7] = tested on: gt1b (isolate Con1) subgenomic I389/NS3-3′/LucUbiMeo/ET replicon; assay: gt1b sub-genomic replicon dose-response; format: cell-based, Hepatitis C Virus; details: Huh7 cells stably harbouring the Con1 replicon, 72 h, luciferase
HCVcc gt 2a strain JFH-1 [8] = assay: HCVcc post-entry model (Protocol 3: drug added after 3 h infection), SEAP; format: cell-based, Hepatitis C Virus; details: 10 μM, 3 d
Description: (§1) Reagents and conditions: a) K2CO3, DMF, room temperature, 24 h; b) MeI, NaH, DMF, 0 °C, 4 h. (B,C) Antiviral activity on HCVcc and cell viability. […] Then, inoculum was removed and cells re-fed with fresh medium. After 72 h the infected cell medium was collected and inhibitory effect was determined by measuring SEAP activity (top). Cell viability analysis was performed following same conditions with no viral infection (bottom). The values of DMSO-treated cells are expressed as 100% and those of the drug-treated cells as relative to this DMSO control. Error bars indicate standard error of the means for 3 experiments. (C) Huh7-J20 cells were infected for 3 h with JFH-1 and then treated for 3 d with drugs (10 μM) (post-entry, top) or infected for 3 h in the presence of the drugs, after a pretreatment of 1 h, and then incubated for 3 d maintaining drugs in the medium (full life cycle, centre). SEAP assay was performed on infected cell medium to determine antiviral activity. Data are presented as in (B) above. Cell viability was performed following full life cycle protocol (bottom).
(§2) To assess the effect of compounds on HCV infection, we used three protocols: Protocol 1 where Huh7-J20[23] cells were pre-treated for 1 h and exposed to the cell culture infectious HCV (HCVcc) gt 2a strain JFH-1 in the presence of 10 μM drug or equivalent DMSO (as a vehicle control) for 3 h. […]

[9] = tested on: SGR-JFH-luc sub-genomic replicon; format: cell-based, Hepatitis C Virus
HCVcc gt 2a strain JFH-1 [10] = assay: HCVcc entry model (Protocol 1: drug only during pre-treatment and 3 h infection), SEAP; format: cell-based, Hepatitis C Virus; details: 10 μM, 1 h pre-treatment + 3 h infection, then 72 h without drug
Description: as §1, §2

SMILES	CC50 (Huh7-J20 cells [5])	IC50 (HCVcc gt 2a strain JFH-1 [3])	also measured
C[C@@]1(O)[C@H](O)[C@@H](CO)O[C@H]1n1cnc2c(N)ncnc21 [2′-C-methyladenosine]	–	–	CC50 (Huh7-J20 cells [1]): > 30 µM; IC50 (HCVcc gt 2a strain JFH-1 [2]): 2000 nM
O=C(Cn1c(=O)ccn(Cc2ccccc2)c1=O)Nc1ccc(Oc2ccccc2)cc1 [Z176]	–	–	IC50 (HCVcc gt 2a strain JFH-1 [3]; Hepatitis C virus, 72 h): 1340 nM; CC50 at 3 d [4]: 17.6 µM
O=C(Cn1c(=O)ccn(CCCCCOc2ccc(Br)cc2)c1=O)Nc1ccc(Oc2ccccc2)cc1 [Z263]	–	–	IC50 (HCVcc gt 2a strain JFH-1 [3]; Hepatitis C virus, 72 h): 3100 nM; CC50 at 3 d [4]: 56.3 µM
Cc1cn(CCCCCOc2ccc(Br)cc2)c(=O)n(CC(=O)Nc2ccc(Oc3ccccc3)cc2)c1=O [Z376]	69.2 µM	–	–
O=C(Cn1c(=O)ccn(CCCCCOc2ccc(Br)cc2)c1=O)Nc1ccc(OCc2ccccc2)cc1 [Z377]	18.4 µM	2980 nM	–
O=C(Cn1c(=O)ccn(CCCCCOc2ccc(Br)cc2)c1=O)Nc1ccc(Oc2ccc(Cl)cc2)cc1 [Z385]	59.2 µM	585 nM	IC50 [6]: 0.66 µM; reduction of total viral RNA levels (HCVcc JFH-1DSGCSL): 90%; IC50 [7]: 6.9 µM
O=C(Cn1c(=O)ccn(CCCCCOc2ccc(Br)cc2)c1=O)Nc1ccc(Cc2ccccc2)cc1 [Z387]	132 µM	712 nM	IC50 [6]: 0.94 µM; reduction of total viral RNA levels (HCVcc JFH-1DSGCSL): 90%; IC50 [7]: 23.3 µM
O=C(Cn1c(=O)ccn(CCCCOc2ccc(Br)cc2)c1=O)Nc1ccc(Oc2ccccc2)cc1 [Z397]	61.1 µM	2950 nM	–
O=C(Cn1c(=O)ccn(CCCCCCOc2ccc(Br)cc2)c1=O)Nc1ccc(Oc2ccccc2)cc1 [Z400]	66.5 µM	243 nM	IC50 [6]: 1.1 µM; reduction of total viral RNA levels (HCVcc JFH-1DSGCSL): 90%; IC50 [7]: 12.6 µM
O=C(Cn1c(=O)ccn(CCCCCCCCOc2ccc(Br)cc2)c1=O)Nc1ccc(Oc2ccccc2)cc1 [Z401]	22.6 µM	92 nM and 92.4 nM	IC50 [6]: 0.69 µM; reduction of total viral RNA levels (HCVcc JFH-1DSGCSL): 90%; IC50 [7]: 2.2 µM; antiviral activity post-entry (HCVcc gt 2a strain JFH-1 [8]): strongly effective post-entry; antiviral activity, short treatment, 48 h post transfection [9]: 50%; inhibition of virus infection (HCVcc entry) relative to DMSO (HCVcc gt 2a strain JFH-1 [10]): 80%
Cc1ccc(Oc2ccc(NC(=O)Cn3c(=O)ccn(CCCCCOc4ccc(Br)cc4)c3=O)cc2)cc1 [Z413]	27.4 µM	315 nM	–
O=C(Cn1c(=O)ccn(CCCCCOc2ccc(Br)cc2)c1=O)Nc1ccc(Oc2ccc(F)cc2)cc1 [Z414]	30.5 µM	627 nM	–
O=C(Cn1c(=O)ccn(CCCCCOc2cccc(Br)c2)c1=O)Nc1ccc(Oc2ccccc2)cc1 [Z421]	44.6 µM	1160 nM	–
O=C(Cn1c(=O)ccn(CCCCCOc2ccc(Br)cc2)c1=O)Nc1ccc(C(=O)c2ccccc2)cc1 [Z430]	11.5 µM	941 nM	–
CN(C(=O)Cn1c(=O)ccn(CCCCCOc2ccc(Br)cc2)c1=O)c1ccc(Oc2ccccc2)cc1 [Z431]	–	–	IC50 (HCVcc gt 2a strain JFH-1 [3]; Hepatitis C virus, 72 h): 500 nM; CC50 at 3 d [4]: 2.67 µM
O=C(Cn1c(=O)ccn(CCCCOCc2ccc(Br)cc2)c1=O)Nc1ccc(Oc2ccccc2)cc1 [Z432]	19.2 µM	1290 nM	increase in cytotoxicity compared to Z263 (Huh7-J20 cells [5]): ~3 fold
N#Cc1ccc(OCCCCCn2ccc(=O)n(CC(=O)Nc3ccc(Oc4ccccc4)cc3)c2=O)cc1 [Z434]	10.5 µM	1850 nM	–
O=C(Cn1c(=O)ccn(CCCCCOc2ccccc2)c1=O)Nc1ccc(Oc2ccccc2)cc1 [Z436]	13 µM	3620 nM	–
O=C(Cn1c(=O)ccn(CCCCCCc2ccccc2)c1=O)Nc1ccc(Oc2ccccc2)cc1 [Z437]	14.7 µM	2930 nM	–
O=C(Cn1c(=O)ccn(CCCCCOc2ccc(-c3ccccc3)cc2)c1=O)Nc1ccc(Oc2ccccc2)cc1 [Z438]	9.6 µM	1740 nM	–
O=C(Cn1c(=O)c(I)cn(CCCCCOc2ccc(Br)cc2)c1=O)Nc1ccc(Oc2ccccc2)cc1 [Z439]	29.7 µM	3720 nM	–
